Reference: patent US12421212B2, “Substituted benzenecarboxamides as IL-17A modulators” (DiCE Alpha, Inc., priority 2019, dated 2025)

Molecular target: T1, IL-17A/A (Homo sapiens, UniProt Q16552)
T1 construct: purchased Genscript Z03228
T1 sequence (Q16552 24-155): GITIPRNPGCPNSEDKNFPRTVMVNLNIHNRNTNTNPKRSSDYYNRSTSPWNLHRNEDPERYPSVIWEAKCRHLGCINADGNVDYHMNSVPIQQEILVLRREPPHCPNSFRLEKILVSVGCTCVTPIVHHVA
Test: IL-17A/A HEK-Blue Cell Assay
Assay type: cell-based
Settings: HEK-Blue IL-17A reporter cell line, SEAP readout at A630, 20 hours incubation with IL-17A/A; top concentration 10 uM, 1 uM or 0.3 uM

Row | SMILES | IL-17A/A inhibition (pIC50)
1 | CCC(=O)N[C@H](Cc1ccc(NC(=O)[C@@H](NC(=O)c2ccnn2CC)C2CCCCC2)c(F)c1)C(=O)N1C[C@@H]2C[C@H]1CN2C [Compound 696] | X2a (compounds were evaluated up to 1 uM and did not inhibit activity by >80%, however they showed some activity at 1 uM (less than 80% and more than 20%))
2 | CCC(=O)N[C@H](Cc1ccc(NC(=O)[C@@H](NC(=O)c2ccnn2CC)C2CCCCC2)c(F)c1)C(=O)N1CCN2CCCC[C@@H]2C1 [Compound 697] | X2a (compounds were evaluated up to 1 uM and did not inhibit activity by >80%, however they showed some activity at 1 uM (less than 80% and more than 20%))
3 | CCC(=O)N[C@H](Cc1ccc(NC(=O)[C@@H](NC(=O)c2ccnn2CC)c2cccc3ccccc23)c(F)c1)C(=O)N1CCN(C)CC1 [Compound 698] | X2b (compounds were evaluated up to 1 uM and inhibited activity at 1 uM by less than 20%)
4 | CCC(=O)N[C@H](Cc1ccc(NC(=O)[C@@H](NC(=O)c2cnc(C(=O)NC)s2)C2CCCCC2)c(F)c1)C(=O)N1CCN(C)CC1 [Compound 699] | X2b (compounds were evaluated up to 1 uM and inhibited activity at 1 uM by less than 20%)
5 | CCn1nccc1C(=O)N[C@H](C(=O)Nc1ccc(C[C@@H](Nc2nc(N)nc(C(F)(F)F)n2)C(=O)N2CCN(C)CC2)cc1F)C1CCCCC1 [Compound 700] | X2a (compounds were evaluated up to 1 uM and did not inhibit activity by >80%, however they showed some activity at 1 uM (less than 80% and more than 20%))
6 | CCn1nccc1C(=O)N[C@H](C(=O)Nc1ccc(C[C@@H](Nc2ncc(C#N)c(OC)n2)C(=O)N2CCN(C)CC2)cc1F)C1CCCCC1 [Compound 701] | X2a (compounds were evaluated up to 1 uM and did not inhibit activity by >80%, however they showed some activity at 1 uM (less than 80% and more than 20%))
7 | CCn1nccc1C(=O)N[C@H](C(=O)Nc1ccc(C[C@@H](NC(=O)c2cn(C)cn2)C(=O)N2CCN(C)CC2)cc1F)C1CCCCC1 [Compound 702] | X2b (compounds were evaluated up to 1 uM and inhibited activity at 1 uM by less than 20%)
8 | CCC(=O)N[C@H](Cc1ccc(NC(=O)[C@@H](NC(=O)c2cnn3c2CCC3)C2CCCCC2)c(F)c1)C(=O)N1CCN(C)CC1 [Compound 703] | X2a (compounds were evaluated up to 1 uM and did not inhibit activity by >80%, however they showed some activity at 1 uM (less than 80% and more than 20%))
9 | CCC(=O)N[C@H](Cc1ccc(NC(=O)[C@@H](NC(=O)c2ccnn2CCO)C2CCCCC2)c(F)c1)C(=O)N1CCN(C)CC1 [Compound 704] | X2a (compounds were evaluated up to 1 uM and did not inhibit activity by >80%, however they showed some activity at 1 uM (less than 80% and more than 20%))
10 | CCC(=O)N[C@H](Cc1ccc(NC(=O)[C@@H](NC(=O)c2noc3c2CNCC3)C2CCCCC2)c(F)c1)C(=O)N1CCN(C)CC1 [Compound 705] | X2b (compounds were evaluated up to 1 uM and inhibited activity at 1 uM by less than 20%)
11 | CCC(=O)N[C@H](Cc1ccc(NC(=O)[C@@H](NC(=O)c2nn(C)c3c2CNCC3)C2CCCCC2)c(F)c1)C(=O)N1CCN(C)CC1 [Compound 706] | X2b (compounds were evaluated up to 1 uM and inhibited activity at 1 uM by less than 20%)

Same assay, conditions: HEK-Blue IL-17A reporter cell line, SEAP readout at A630, 20 hours incubation with IL-17A/A; top concentration 10 uM, 1 uM or 0.3 uM; read-out: IL-17A/A inhibition (pIC50) (converted)

Row | SMILES | IC50
12 | CCC(=O)N[C@H](Cc1ccc(NC(=O)[C@@H](NC(=O)c2conc2CC)C2CCC(F)(F)CC2)c(F)c1)C(=O)N1CCN(C)CC1 [Compound 692] | 0.1 to 10 µM
13 | CCC(=O)NC(Cc1ccc(NC(=O)[C@@H](NC(=O)c2ccnn2CC)C2CCCCC2)c(F)c1)C(=O)N1CCN2CCOCC2C1 (stereo partly drawn) [Compound 693] | 0.1 to 10 µM
14 | CCC(=O)N[C@H](Cc1ccc(NC(=O)[C@@H](NC(=O)c2ccnn2CC)C2CCCCC2)c(F)c1)C(=O)Nc1cccnc1 [Compound 694] | 0.1 to 10 µM
15 | CCn1nccc1C(=O)N[C@H](C(=O)Nc1ccc([C@H](C)[C@@H](NC(=O)c2csc(N)n2)C(=O)N2CCN(C)CC2)cc1F)C1CCCCC1 [Compound 695] | 0.1 to 10 µM
